Test [1] concerns the target T1, GPIIb-IIIa (Homo sapiens, UniProt P05106+P08514).
T1 construct: Purified platelet GPIIb-IIIa receptor was prepared as described by Fitzgerald; from tissue; host or cells: platelets
T1 sequence (P08514 32-887 limits assumed): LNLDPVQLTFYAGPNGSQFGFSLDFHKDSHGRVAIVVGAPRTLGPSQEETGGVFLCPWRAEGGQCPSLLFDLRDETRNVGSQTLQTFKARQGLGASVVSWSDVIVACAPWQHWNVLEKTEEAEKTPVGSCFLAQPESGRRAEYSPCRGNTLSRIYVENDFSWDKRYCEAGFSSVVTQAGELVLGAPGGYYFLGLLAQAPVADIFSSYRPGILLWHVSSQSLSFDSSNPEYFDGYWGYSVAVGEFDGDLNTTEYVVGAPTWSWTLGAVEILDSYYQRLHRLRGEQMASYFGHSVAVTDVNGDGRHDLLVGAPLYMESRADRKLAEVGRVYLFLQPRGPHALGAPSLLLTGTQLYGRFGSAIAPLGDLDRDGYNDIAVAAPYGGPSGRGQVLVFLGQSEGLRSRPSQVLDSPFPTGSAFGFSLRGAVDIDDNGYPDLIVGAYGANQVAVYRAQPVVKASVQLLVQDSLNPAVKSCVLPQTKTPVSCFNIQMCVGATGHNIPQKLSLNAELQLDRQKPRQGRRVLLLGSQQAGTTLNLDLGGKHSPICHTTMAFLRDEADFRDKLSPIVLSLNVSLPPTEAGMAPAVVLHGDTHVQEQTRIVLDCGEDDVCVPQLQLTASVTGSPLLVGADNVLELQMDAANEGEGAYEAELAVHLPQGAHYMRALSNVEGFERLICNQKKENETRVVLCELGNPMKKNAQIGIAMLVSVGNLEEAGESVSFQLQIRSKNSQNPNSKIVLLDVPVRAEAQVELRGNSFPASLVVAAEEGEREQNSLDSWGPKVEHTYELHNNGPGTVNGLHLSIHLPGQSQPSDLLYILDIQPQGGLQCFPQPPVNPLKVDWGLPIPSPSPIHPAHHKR
T1 sequence (P05106 27-788): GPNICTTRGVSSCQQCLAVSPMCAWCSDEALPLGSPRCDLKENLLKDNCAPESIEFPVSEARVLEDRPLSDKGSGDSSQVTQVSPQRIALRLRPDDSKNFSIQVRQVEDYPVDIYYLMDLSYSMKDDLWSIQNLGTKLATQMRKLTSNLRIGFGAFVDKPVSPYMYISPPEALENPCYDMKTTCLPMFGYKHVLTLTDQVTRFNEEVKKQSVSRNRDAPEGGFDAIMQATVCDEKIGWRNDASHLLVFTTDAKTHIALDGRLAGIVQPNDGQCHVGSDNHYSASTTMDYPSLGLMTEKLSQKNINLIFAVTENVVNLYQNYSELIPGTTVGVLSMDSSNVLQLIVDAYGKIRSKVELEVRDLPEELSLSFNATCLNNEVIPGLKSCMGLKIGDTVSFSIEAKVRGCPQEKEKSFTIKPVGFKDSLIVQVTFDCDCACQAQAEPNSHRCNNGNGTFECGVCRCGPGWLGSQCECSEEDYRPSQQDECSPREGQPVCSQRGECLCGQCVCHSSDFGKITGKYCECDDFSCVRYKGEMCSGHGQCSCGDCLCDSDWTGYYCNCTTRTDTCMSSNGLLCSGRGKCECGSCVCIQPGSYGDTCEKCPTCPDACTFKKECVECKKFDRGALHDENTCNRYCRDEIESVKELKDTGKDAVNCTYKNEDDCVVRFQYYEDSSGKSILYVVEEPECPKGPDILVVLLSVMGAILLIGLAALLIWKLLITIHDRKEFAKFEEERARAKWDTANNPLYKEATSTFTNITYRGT
Kind of test: ELISA IIb-IIIa assay (fibrinogen binding to immobilized GPIIb-IIIa). The conditions noted are these: purified platelet GPIIb-IIIa receptor coated on ELISA plates; biotin-labeled fibrinogen 10 nM, 3 hours at 25° C. Here is the method: In the following assay, GPIIb-IIIa is prepared in purified form, by a method such as described by Fitzgerald, L. A., et al., Anal Biochem (1985) 151:169-177, (the disclosure of which is incorporated herein by reference). GPIIb-IIIa is coated onto microtiter plates. The coated support is then contacted with fibrinogen and with the test material (e.g., compounds of Formula I) and incubated for a sufficient time to permit maximal binding of fibrinogen to the immobilized GPIIb-IIIa. Fibrinogen is typically provided at a concentration of about 5-50 nM and the test material can, if desired, be added at a series of dilution. Typical incubations are 2 to 4 hours at 25° C., the time and temperature being interdependent.
After incubation, the solution containing the fibrinogen and test material is removed and the level of binding of fibrinogen measured by quantitating bound fibrinogen to GPIIb-IIIa. Any suitable means of detection may be used, but it is convenient to employ labeled fibrinogen, for example using biotinylated labels. Such methods are well known in the art.
Purified platelet GPIIb-IIIa receptor was prepared as described by Fitzgerald, L. A., et al., Anal Biochem (1985) 151:169-177 (1985). Vitronectin receptor was prepared as described by Smith, J. W., J. Biol Chem (1988) 263:18726-18731. After purification, the receptors were stored in 0.1% Triton X-100 at 0.1-1.0 mg/ml.
The receptors were coated to the wells of 96-well flat-bottom ELISA plates (Linbro EIA-Plus microtiter plate, Flow Laboratories) after diluting 1:200 with a solution of 20 mM Tris-HCl, 150 mM NaCl, 1 mM CaCl2, pH 7.4, to reduce the Triton X-100 concentration to below its critical micellar concentration and adding an aliquot of 100 ul to each well. The wells were all allowed to incubate overnight at 4° C., and then aspirated to dryness. Additional sites were blocked by the addition of bovine serum albumin (BSA) at 35 mg/ml in the above buffer for 2 hours at 30° C. to prevent nonspecific binding. The wells were then washed once with binding buffer ([…] Tris-HCl, 100 mM NaCl 2 mM CaCl2, 1 mg/ml BSA).
The corresponding ligands (fibrinogen, von Willebrand Factor, or vitronectin) were conjugated to biotin using commercially available reagents and standard protocols. The labeled ligands were added to the receptor-coated wells at final concentration of 10 nM (100 ul/well) and incubated for 3 hours at 25° C. in the presence or absence of the test samples. After incubation, the wells are aspirated to dryness and bound ligand is quantitated.
The bound protein is detected by the addition of antibiotin antibody conjugated to alkaline phosphatase followed by addition of substrate (p-nitrophenyl phosphate), and determination of the optical density of each well at […]. Decreased color development is observed in wells incubated with test samples which inhibit binding of ligand to receptor.

The subject of test [2] is human platelet-rich plasma. Kind of test: Platelet aggregation assay (Aggregation-Human PRP/ADP). It counts as cell-based. The conditions noted are these: 1 min; human platelet-rich plasma incubated with compound 1 minute at 37° C.; ADP-induced aggregation; read-out: Agg: Human PRP/ADP IC50uM. As to the method:
Platelet-rich plasma was prepared from healthy human volunteers for use in determining inhibition of platelet aggregation by the compounds.
Platelet-rich plasma was prepared at room temperature by centrifugation of the citrated whole blood at 100×g for 12 minutes. The platelet rich plasma contained approximately 200-400,000 platelets/μl.
Platelet-poor plasma was prepared by centrifugation of citrated whole blood at 12,000×g for 2 minutes.
Platelet aggregation was assayed in a 4-channel platelet aggregation profiler (PAP-4, Biodata, Hatboro, Pa.) according to the manufacturers directions. Inhibition of platelet aggregation was studied by adding varying amounts of […] to stirred human platelet-rich plasma. Specifically, the human platelet-rich plasma was incubated with the compound being tested for 1 minute at 37° C. prior to the addition of a variety of aggregating agents most often ADP 5 μM, but also 1 μg/ml collagen, 1 μM U46619 and 0.3 μM platelet activating factor.

Each structure is given as a SMILES string. Structures can show the parent of a compound that is named as a salt. Bounds are passed on as bounds.

Take `CCCCCCNC(=O)C(CC(=O)O)N1CCc2cc(OCc3ccc(C(=N)N)cc3)ccc2C1=O` (racemic) [Example 5, (+−)-6-[[4-(Aminoiminomethyl)phenyl]methoxy]-3,4-dihydro-1-oxo-beta[hexylamino Carbonyl]-2(1H)-isoquinolone Propanoic Acid Trifluoroacetate]: the IC50 in test [1] was found to be 33 nM; in test [2], 7 µM.

For the compound `CCOC(=O)CC1CCc2cc(NC(=O)c3ccc(C(=N)N)cc3)ccc2O1` (racemic) [Example 47, Hydrochloride], the IC50 in test [1] is 770 nM; in test [2], 0.24 µM.

As for `N=C(NCc1ccccc1)c1ccc(C(=O)Nc2ccc3c(c2)CCC(CC(=O)O)O3)cc1` (racemic) [Example 93, rac-(3,4-Dihydro-6-(N-(4-(N′-(phenylmethylamino)iminomethyl)benzoyl)amino)-2H-1-benzopyran-2-yl)acetic Acid], the IC50 in test [1] was 9.4 nM; in test [2], 0.086 µM.

In the case of `CCNC(=N)c1ccc(C(=O)Nc2ccc3c(c2)CCC(CC(=O)OCC)O3)cc1` (racemic) [Example 71, Hydrochloride], the IC50 is over 10000 nM in test [1] and 1.5 µM in test [2].

For `CCNC(=N)c1ccc(C(=O)Nc2ccc3c(c2)CCC(CC(=O)O)O3)cc1` (racemic) [Example 72, rac-(3,4-Dihydro-6-(N-(4-((ethylamino)iminomethyl)benzoyl)amino)-2H-1-benzopyran-2-yl)acetic Acid], the IC50 is 18.5 nM in test [1] and 0.28 µM in test [2].

In the case of `N=C(N)c1ccc(C(=O)Nc2ccc3c(c2)CCC(CC(=O)O)C3)cc1` (stereo not shown) [Example 28], the IC50 in test [1] amounted to 5 nM; in test [2], 0.19 µM.

Take `N=C(N)c1ccc(COc2ccc3c(c2)CCN(C(CC(=O)O)c2ccccc2)C3=O)cc1` (racemic) [Example 16, (+−)-6-[[4-(Aminoiminomethyl)phenyl]methoxy]-3,4-dihydro-1-oxo-b-phenyl-(1H)-isoquinoline Propanoic Acid Trifluoroacetate]: the figures for the IC50 in test [1] and in test [2] were 7 nM and 0.2 µM, respectively.

Turning to `N=C(N)c1ccc(C(=O)Nc2ccc3c(c2)OCC(OCC(=O)O)C3)cc1` (stereo not shown) [Example 41], the IC50 in test [1] amounted to 46 nM; in test [2] it was 0.3 µM.

Regarding `N=C(N)c1ccc(COc2ccc3c(c2)CCC(OCC(=O)O)C3)cc1` (stereo not shown) [Example 23], the figures for the IC50 in test [1] and in test [2] were 190 nM and 25 µM, respectively.

As to `CCOC(=O)CC1CCc2cc(NC(=O)c3ccc(C(=N)NC)cc3)ccc2O1` (racemic) [Example 57, Hydrochloride], the IC50 was over 10000 nM in test [1] and 0.66 µM in test [2].

For the compound `N=C(N)c1ccc(C(=O)Nc2ccc3c(c2)CCN(CC(=O)O)C3)cc1` [Example 36], the IC50 turned out to be 5 nM in test [1] and 0.17 µM in test [2].

`N=C(N)c1ccc(C(=O)Nc2ccc3c(c2)CCN(CC(=O)O)C3=O)cc1` [Example 4, 6-[[(4-(Aminoiminomethyl)benzoy]amino]-3,4-dihydro-1-oxo-2(1H)-isoquinoline Acetic Acid Trifluoroacetate]: the IC50 was determined as 3.3 nM in test [1] and 0.1 µM in test [2].

As for `CCCNC(=N)c1ccc(C(=O)Nc2ccc3c(c2)CCC(CC(=O)O)O3)cc1` (racemic) [Example 82, rac-(3,4-Dihydro-6-(N-(4-((propylamino)iminomethyl)benzoyl)amino)-2H-1-benzopyran-2-yl)acetic Acid], the IC50 in test [1] is 19 nM; in test [2] it was 0.12 µM.

Consider `N=C(N)c1ccc(COc2ccc3c(c2)CCC(CC(=O)O)O3)cc1` (racemic) [Example 46, rac-(6-(4-(Aminoiminomethyl)phenylmethoxy)-3,4-dihydro-2H-1-benzopyran-2-yl)acetic Acid Trifluoroacetate], for which the values for the IC50 in test [1] and in test [2] were 3.3 nM and 2.5 µM, respectively.

Turning to `O=C(O)CC1CCc2cc(NC(=O)/C=C/C3CCNCC3)ccc2O1` (racemic) [Example 78, rac-(3,4-Dihydro-6-(N-(3-(piperidine-4-yl)propenoyl)amino)-2H-1-benzopyran-2-yl)acetic Acid], the IC50 in test [1] was 20 nM; in test [2], 0.18 µM.

On to `N=C(N)c1ccc(C(=O)Nc2ccc3c(c2)CCC(CC(=O)O)O3)cc1` (racemic) [Example 48, rac-(6-(N-(4-(Aminoiminomethyl)benzoyl)amino)-3,4-dihydro-2H-1-benzopyran-2-yl)acetic Acid], for which the IC50 in test [1] was determined as 4 nM; in test [2], 0.066 µM.

For the compound `CC1(CCCCCCCCC(=O)O)C=Cc2cc(C(=N)N)ccc2O1` (racemic) [Example 60, rac-9-(6-Aminoiminomethyl-2-methyl-2H-1-benzopyran-2-yl)nonanoic Acid], the IC50 in test [1] was 1800 nM; in test [2], over 10 µM.
